The experiment deals with HBV rcDNA in HepDE19 cells. The experiment can be described thus: HepDE19 assay with bDNA quantitation of HBV rcDNA. The settings on record: Hepatitis B virus, HepDE19, HepDE19 assay, inhibition of rcDNA formation, bDNA quantitation; read-out: DE-19bDNA EC50. In kind it is cell-based, hepatitis B virus.
`CCC(CC)C(=O)OC1OC[C@@H](N(C)C(=O)c2cc3cc(F)c(F)cc3[nH]2)c2c1[nH]c(=O)c1cc(F)c(F)cc21` (stereo partly drawn) [Compound 331, (1S)-1-(5,6-Difluoro-N-methyl-1H-indole-2-carboxamido)-8,9-difluoro-6-oxo-1,4,5,6-tetrahydro-2H-pyrano[3,4-c]isoquinolin-4-yl 2-ethylbutanoate]: the EC50 came to 10 nM. For the compound `CN(C(=O)c1cc2oc(Cl)cc2[nH]1)[C@@H]1COCc2[nH]c(=O)c3cc(F)c(F)cc3c21` [Compound 332, (S)-2-Chloro-N-(8,9-difluoro-6-oxo-1,4,5,6-tetrahydro-2H-pyrano[3,4-c]isoquinolin-1-yl)-N-methyl-4H-furo[3,2-b]pyrrole-5-carboxamide], the EC50 came out at 40 nM.

With `CN(C(=O)c1cc2c(C#N)cc(F)cc2[nH]1)[C@@H]1COCc2[nH]c(=O)c3cc(F)c(F)cc3c21` [Compound 341, (S)-4-Cyano-N-(8,9-difluoro-6-oxo-1,4,5,6-tetrahydro-2H-pyrano[3,4-c]isoquinolin-1-yl)-6-fluoro-N-methyl-1H-indole-2-carboxamide], the EC50 was determined as 30 nM.

For `CCc1cc(F)cc2[nH]c(C(=O)N(C)[C@@H]3COCc4[nH]c(=O)c5cc(F)c(F)cc5c43)cc12` [Compound 342, (S)-N-(8,9-Difluoro-6-oxo-1,4,5,6-tetrahydro-2H-pyrano[3,4-c]isoquinolin-1-yl)-4-ethyl-6-fluoro-N-methyl-1H-indole-2-carboxamide], the EC50 was determined as 10 nM. With `CN(C(=O)c1cc2c(Cl)cc(F)cc2[nH]1)[C@@H]1COCc2[nH]c(=O)c3cc(F)c(F)cc3c21` [Compound 343, (S)-4-Chloro-N-(8,9-difluoro-6-oxo-1,4,5,6-tetrahydro-2H-pyrano[3,4-c]isoquinolin-1-yl)-6-fluoro-N-methyl-1H-indole-2-carboxamide], the half-maximal effective concentration (EC50) worked out at 10 nM. For `Cc1cc(F)cc2[nH]c(C(=O)N(C)[C@@H]3COCc4[nH]c(=O)c5cc(F)c(F)cc5c43)cc12` [Compound 344, (S)-N-(8,9-Difluoro-6-oxo-1,4,5,6-tetrahydro-2H-pyrano[3,4-c]isoquinolin-1-yl)-6-fluoro-N,4-dimethyl-1H-indole-2-carboxamide], the EC50 is 10 nM. Take `CN(C(=O)c1cc2cc(C#N)ccc2[nH]1)[C@@H]1COCc2[nH]c(=O)c3cc(F)c(F)cc3c21` [Compound 345, (S)-5-Cyano-N-(8,9-difluoro-6-oxo-1,4,5,6-tetrahydro-2H-pyrano[3,4-c]isoquinolin-1-yl)-N-methyl-1H-indole-2-carboxamide]: the half-maximal effective concentration (EC50) was 30 nM. With `CN(C(=O)c1cc2cc(S(C)(=O)=O)ccc2[nH]1)[C@@H]1COCc2[nH]c(=O)c3cc(F)c(F)cc3c21` [Compound 346, (S)-N-(8,9-Difluoro-6-oxo-1,4,5,6-tetrahydro-2H-pyrano[3,4-c]isoquinolin-1-yl)-N-methyl-5-(methylsulfonyl)-1H-indole-2-carboxamide], the EC50 was determined as 6700 nM.

`CN(C(=O)c1cc2c(Cl)cccc2[nH]1)[C@@H]1COCc2[nH]c(=O)c3cc(F)c(F)cc3c21` [Compound 347, (S)-4-Chloro-N-(8,9-difluoro-6-oxo-1,4,5,6-tetrahydro-2H-pyrano[3,4-c]isoquinolin-1-yl)-N-methyl-1H-indole-2-carboxamide]: the EC50 stood at 10 nM. Regarding `CN(C(=O)c1cc2ccc(Br)cn2c1)[C@@H]1COCc2[nH]c(=O)c3cc(F)c(F)cc3c21` [Compound 348, (S)-6-Bromo-N-(8,9-difluoro-6-oxo-1,4,5,6-tetrahydro-2H-pyrano[3,4-c]isoquinolin-1-yl)-N-methylindolizine-2-carboxamide], the EC50 was 40 nM. Turning to `CN(C(=O)c1cc2sc(Cl)cc2[nH]1)[C@@H]1COCc2[nH]c(=O)c3cc(F)c(F)cc3c21` [Compound 349, (S)-2-Chloro-N-(8,9-difluoro-6-oxo-1,4,5,6-tetrahydro-2H-pyrano[3,4-c]isoquinolin-1-yl)-N-methyl-4H-thieno[3,2-b]pyrrole-5-carboxamide], the EC50 was 10 nM. Turning to `CN(C(=O)c1cc2scc(Cl)c2[nH]1)[C@@H]1COCc2[nH]c(=O)c3cc(F)c(F)cc3c21` [Compound 350, (S)-3-chloro-N-(8,9-difluoro-6-oxo-1,4,5,6-tetrahydro-2H-pyrano[3,4-c]isoquinolin-1-yl)-N-methyl-4H-thieno[3,2-b]pyrrole-5-carboxamide], the 50% effective concentration (EC50) is 70 nM. `CN(C(=O)c1cc2c(CO)cc(F)cc2[nH]1)[C@@H]1COCc2[nH]c(=O)c3cc(F)c(F)cc3c21` [Compound 355, (S)-N-(8,9-Difluoro-6-oxo-1,4,5,6-tetrahydro-2H-pyrano[3,4-c]isoquinolin-1-yl)-6-fluoro-4-(hydroxymethyl)-N-methyl-1H-indole-2-carboxamide]: the EC50 was 20 nM.

Turning to `CN(C(=O)c1cc2cncc(Br)c2o1)[C@@H]1COCc2[nH]c(=O)c3cc(F)c(F)cc3c21` [Compound 356, (S)-7-Bromo-N-(8,9-difluoro-6-oxo-1,4,5,6-tetrahydro-2H-pyrano[3,4-c]isoquinolin-1-yl)-N-methylfuro[3,2-c]pyridine-2-carboxamide], the EC50 came to 1500 nM. Turning to `CN(C(=O)c1ccc2c(Cl)nn(C(F)F)c2c1)[C@@H]1COCc2[nH]c(=O)c3cc(F)c(F)cc3c21` [Compound 357, (S)-3-Chloro-N-(8,9-difluoro-6-oxo-1,4,5,6-tetrahydro-2H-pyrano[3,4-c]isoquinolin-1-yl)-1-(difluoromethyl)-N-methyl-1H-indazole-6-carboxamide], the EC50 stood at 30 nM.

As to `CN(C(=O)c1ccc2c(Cl)n(C(F)F)nc2c1)[C@@H]1COCc2[nH]c(=O)c3cc(F)c(F)cc3c21` [Compound 358, (S)-3-Chloro-N-(8,9-difluoro-6-oxo-1,4,5,6-tetrahydro-2H-pyrano[3,4-c]isoquinolin-1-yl)-2-(difluoromethyl)-N-methyl-2H-indazole-6-carboxamide], the EC50 was determined as 680 nM. The figure for `CN(C(=O)c1ccc2c(c1)c(Cl)nn2C(F)F)[C@@H]1COCc2[nH]c(=O)c3cc(F)c(F)cc3c21` [Compound 359, (S)-3-chloro-N-(8,9-difluoro-6-oxo-1,4,5,6-tetrahydro-2H-pyrano[3,4-c]isoquinolin-1-yl)-1-(difluoromethyl)-N-methyl-1H-indazole-5-carboxamide] is 10 nM.

For `CN(C(=O)c1ccc2nn(C(F)F)c(Cl)c2c1)[C@@H]1COCc2[nH]c(=O)c3cc(F)c(F)cc3c21` [Compound 360, (S)-3-Chloro-N-(8,9-difluoro-6-oxo-1,4,5,6-tetrahydro-2H-pyrano[3,4-c]isoquinolin-1-yl)-2-(difluoromethyl)-N-methyl-2H-indazole-5-carboxamide], the EC50 was determined as 120 nM. For the compound `CN(C(=O)c1ccc(Cl)c(Cl)c1)[C@@H]1COCc2[nH]c(=O)c3cc(F)c(F)cc3c21` [Compound 361, (S)-3,4-Dichloro-N-(8,9-difluoro-6-oxo-1,4,5,6-tetrahydro-2H-pyrano[3,4-c]isoquinolin-1-yl)-N-methylbenzamide], the EC50 was 10 nM.

Consider `CN(C(=O)c1cc2c(NS(C)(=O)=O)cc(F)cc2[nH]1)[C@@H]1COCc2[nH]c(=O)c3cc(F)c(F)cc3c21` [Compound 362, (S)-N-(8,9-Difluoro-6-oxo-1,4,5,6-tetrahydro-2H-pyrano[3,4-c]isoquinolin-1-yl)-6-fluoro-N-methyl-4-(methylsulfonamido)-1H-indole-2-carboxamide], for which the EC50 is 14000 nM.

`CN(C(=O)c1cc2c(OC(F)(F)F)cccc2[nH]1)[C@@H]1COCc2[nH]c(=O)c3cc(F)c(F)cc3c21` [Compound 363, (S)-N-(8,9-Difluoro-6-oxo-1,4,5,6-tetrahydro-2H-pyrano[3,4-c]isoquinolin-1-yl)-N-methyl-4-(trifluoromethoxy)-1H-indole-2-carboxamide]: the EC50 amounted to 20 nM. Regarding `COc1ccc2cc(C(=O)N(C)[C@@H]3COCc4[nH]c(=O)c5cc(F)c(F)cc5c43)[nH]c2c1` [Compound 364, (S)-N-(8,9-Difluoro-6-oxo-1,4,5,6-tetrahydro-2H-pyrano[3,4-c]isoquinolin-1-yl)-6-methoxy-N-methyl-1H-indole-2-carboxamide], the EC50 was 30 nM. As for `CN(C(=O)c1cnc(C(F)(F)F)c(Br)c1)[C@@H]1COCc2[nH]c(=O)c3cc(F)c(F)cc3c21` [Compound 365, (S)-5-Bromo-N-(8,9-difluoro-6-oxo-1,4,5,6-tetrahydro-2H-pyrano[3,4-c]isoquinolin-1-yl)-N-methyl-6-(trifluoromethyl)nicotinamide], the half-maximal effective concentration (EC50) stood at 60 nM. Consider `CN(C(=O)c1ccc2ccc(Cl)n2c1)[C@@H]1COCc2[nH]c(=O)c3cc(F)c(F)cc3c21` [Compound 366, (S)-3-Chloro-N-(8,9-difluoro-6-oxo-1,4,5,6-tetrahydro-2H-pyrano[3,4-c]isoquinolin-1-yl)-N-methylindolizine-6-carboxamide], for which the EC50 came out at 100 nM.

Turning to `COc1c2ccc(C(=O)N(C)[C@@H]3COCc4[nH]c(=O)c5cc(F)c(F)cc5c43)cc2nn1C(F)F` [Compound 367, (S)-N-(8,9-Difluoro-6-oxo-1,4,5,6-tetrahydro-2H-pyrano[3,4-c]isoquinolin-1-yl)-2-(difluoromethyl)-3-methoxy-N-methyl-2H-indazole-6-carboxamide], the EC50 was 4600 nM. Consider `COc1c2cc(C(=O)N(C)[C@@H]3COCc4[nH]c(=O)c5cc(F)c(F)cc5c43)ccc2nn1C(F)F` [Compound 368, (S)-N-(8,9-Difluoro-6-oxo-1,4,5,6-tetrahydro-2H-pyrano[3,4-c]isoquinolin-1-yl)-2-(difluoromethyl)-3-methoxy-N-methyl-2H-indazole-5-carboxamide], for which the EC50 came out at 3400 nM.

For the compound `COc1n[nH]c2ccc(C(=O)N(C)[C@@H]3COCc4[nH]c(=O)c5cc(F)c(F)cc5c43)cc12` [Compound 369, (S)-N-(8,9-Difluoro-6-oxo-1,4,5,6-tetrahydro-2H-pyrano[3,4-c]isoquinolin-1-yl)-3-methoxy-N-methyl-1H-indazole-5-carboxamide], the EC50 came out at 6100 nM. The figure for `CN(C(=O)C1CN(c2csc(Cl)c2)C1)[C@@H]1COCc2[nH]c(=O)c3cc(F)c(F)cc3c21` [Compound 370, (S)-1-(5-Chlorothiophen-3-yl)-N-(8,9-difluoro-6-oxo-1,4,5,6-tetrahydro-2H-pyrano[3,4-c]isoquinolin-1-yl)-N-methylazetidine-3-carboxamide] is 490 nM.

The EC50 is the concentration at which the effect is half-maximal.
